Experimental data taken from ChEMBL document CHEMBL4138213, “Synthesis and biological characterization of ubenimex-fluorouracil conjugates for anti-cancer therapy” (Eur J Med Chem, 2018).
Activity calls are given as the source filed them. The calls are words filed in the database; no cut-off is given here.

Experiments:
cells [1] = details: Homo sapiens, ES-2, 48 h
Description: Antiproliferative activity against human ES2 cells after 48 hrs by MTT assay

PLC-PRF-5 [2] = assay: Antiproliferative activity against human PLC/PRF/5 cells after 48 hrs by MTT assay; details: PLC-PRF-5, 48 h
Aminopeptidase N = molecular target: T1, Aminopeptidase N (Sus scrofa, UniProt P15145); assay: Inhibition of porcine kidney CD13 using L-leucine-p-nitroanilide as substrate preincubated for 5 mins followed by substrate addition measured after 30 mins
T1 sequence (P15145 whole entry): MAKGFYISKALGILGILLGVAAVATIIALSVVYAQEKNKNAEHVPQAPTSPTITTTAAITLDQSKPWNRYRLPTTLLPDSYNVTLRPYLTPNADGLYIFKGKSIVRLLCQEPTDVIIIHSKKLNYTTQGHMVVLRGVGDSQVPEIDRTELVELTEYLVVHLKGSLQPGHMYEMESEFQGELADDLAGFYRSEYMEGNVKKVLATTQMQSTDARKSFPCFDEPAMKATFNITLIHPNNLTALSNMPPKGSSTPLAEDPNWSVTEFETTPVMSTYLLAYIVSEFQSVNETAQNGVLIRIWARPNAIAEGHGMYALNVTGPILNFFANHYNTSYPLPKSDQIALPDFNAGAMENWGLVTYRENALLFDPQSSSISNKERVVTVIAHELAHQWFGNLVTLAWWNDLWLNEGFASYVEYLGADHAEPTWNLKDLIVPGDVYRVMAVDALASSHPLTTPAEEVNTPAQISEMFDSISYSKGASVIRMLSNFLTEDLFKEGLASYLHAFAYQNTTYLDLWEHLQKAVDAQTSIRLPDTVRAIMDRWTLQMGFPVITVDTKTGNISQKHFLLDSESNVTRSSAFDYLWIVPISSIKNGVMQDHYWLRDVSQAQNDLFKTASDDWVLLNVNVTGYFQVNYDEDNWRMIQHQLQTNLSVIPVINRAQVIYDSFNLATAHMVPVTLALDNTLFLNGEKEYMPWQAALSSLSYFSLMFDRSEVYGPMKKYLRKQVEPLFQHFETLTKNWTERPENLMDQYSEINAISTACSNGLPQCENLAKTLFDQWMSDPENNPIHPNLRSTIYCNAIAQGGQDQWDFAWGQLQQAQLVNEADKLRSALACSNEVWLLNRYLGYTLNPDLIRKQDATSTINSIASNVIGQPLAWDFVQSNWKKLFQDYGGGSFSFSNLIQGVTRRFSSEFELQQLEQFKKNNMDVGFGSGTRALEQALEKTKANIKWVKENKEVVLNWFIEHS

HCT-116 [3] = assay: cells; details: Homo sapiens, HCT-116, 48 h
[4] = Apparent clearance in Wistar rat at 80 mg/kg, iv after 0.05 to 24 hrs by HPLC-MS/MS analysis; assay type: ADME, organism-based; details: in vivo, read-out: CL(app) (converted)
[5] = Terminal Half life in Wistar rat at 80 mg/kg, iv after 0.05 to 24 hrs by HPLC-MS/MS analysis; assay type: ADME, organism-based; details: Wistar, in vivo, read-out: beta t1/2 (converted)
PLC-PRF-5 [6] = assay: Induction of apoptosis in human PLC/PRF/5 cells assessed as viable cells at 20 uM after 48 hrs by annexin-V-FITC/propidium iodide staining-based flow cytometric method (reference value: 93.7%); assay type: functional; details: PLC-PRF-5, 48 h, read-out: Activity
PLC-PRF-5 [7] = assay: Antiproliferative activity against human PLC/PRF/5 cells in presence of ubenimex after 48 hrs by MTT assay; assay type: functional, cell-based; details: PLC-PRF-5, 48 h
H22 = assay: Antitumor activity against 5-FU-resistant […] cells xenografted in Kunming mouse at 20 mg/kg, ip after 14 days; assay type: functional, organism-based
[8] = Antiproliferative activity against human H7402 cells after 48 hrs by MTT assay; details: H7402, 48 h
U-937 [9] = assay: Antiproliferative activity against human U937 cells in presence of ubenimex after 48 hrs by MTT assay; assay type: functional, cell-based; details: U-937, 48 h
cells [10] = details: Homo sapiens, ES-2, 48 h; remark: listed apart in the source
[11] = Volume of distribution during elimination phase in Wistar rat at 80 mg/kg, iv after 0.05 to 24 hrs by HPLC-MS/MS analysis; assay type: ADME, organism-based; details: in vivo, read-out: Vz
HCT-116 [12] = assay: cells; details: Homo sapiens, HCT-116, 48 h; remark: listed apart in the source
U-937 [13] = assay: cells; details: Homo sapiens, U-937, 48 h
Description: Antiproliferative activity against human U937 cells after 48 hrs by MTT assay

PLC-PRF-5 [14] = assay: Induction of apoptosis in human PLC/PRF/5 cells assessed as early apoptotic cells at 20 uM in presence of ubenimex after 48 hrs by annexin-V-FITC/propidium iodide staining-based flow cytometric method (reference value: 5.82%); assay type: functional
[15] = AUC (0 to infinity) in Wistar rat at 80 mg/kg, iv after 0.05 to 24 hrs by HPLC-MS/MS analysis; assay type: ADME, organism-based; set-up: dose 80 mg/kg, time infinity, route intravenous; details: in vivo
HepG2 [16] = assay: cells; details: Homo sapiens, HepG2, 48 h
PLC-PRF-5 [17] = assay: Induction of apoptosis in human PLC/PRF/5 cells assessed as late apoptotic cells at 20 uM in presence of ubenimex after 48 hrs by annexin-V-FITC/propidium iodide staining-based flow cytometric method (reference value: 0.341%); assay type: functional
[18] = MRT (0 to infinity) in Wistar rat at 80 mg/kg, iv after 0.05 to 24 hrs by HPLC-MS/MS analysis; assay type: ADME, organism-based; details: Wistar, in vivo
PLC-PRF-5 [19] = assay: Induction of apoptosis in human PLC/PRF/5 cells assessed as necrotic cells at 20 uM after 48 hrs by annexin-V-FITC/propidium iodide staining-based flow cytometric method (reference value: 0.106%); assay type: functional
PLC-PRF-5 [20] = assay: Downregulation of CD13 expression in human PLC/PRF/5 cells at 10 uM in presence of ubenimex after 48 hrs by flow cytometric method; assay type: functional, cell-based
A549 = assay: Antiproliferative activity against human A549 cells after 48 hrs by MTT assay; details: A549, 48 h
PLC-PRF-5 [21] = assay: Downregulation of CD13 expression in human PLC/PRF/5 cells at 10 uM after 48 hrs by flow cytometric method; assay type: functional, cell-based
PLC-PRF-5 [22] = assay: Induction of apoptosis in human PLC/PRF/5 cells assessed as viable cells at 20 uM in presence of ubenimex after 48 hrs by annexin-V-FITC/propidium iodide staining-based flow cytometric method (reference value: 93.7%); assay type: functional; details: PLC-PRF-5, 48 h, read-out: Activity
HepG2 [23] = assay: cells; details: Homo sapiens, HepG2, 48 h; remark: listed apart in the source
Rattus norvegicus = assay: VRT (0 to infinity) in Wistar rat at 80 mg/kg, iv after 0.05 to 24 hrs by HPLC-MS/MS analysis; assay type: ADME, organism-based; details: in vivo
PLC-PRF-5 [24] = assay: Induction of apoptosis in human PLC/PRF/5 cells assessed as necrotic cells at 20 uM in presence of ubenimex after 48 hrs by annexin-V-FITC/propidium iodide staining-based flow cytometric method (reference value: 0.106%); assay type: functional
U-266 [25] = assay: Antiproliferative activity against human U266 cells after 48 hrs by MTT assay; details: U-266, 48 h
PLC-PRF-5 [26] = assay: Induction of apoptosis in human PLC/PRF/5 cells assessed as late apoptotic cells at 20 uM after 48 hrs by annexin-V-FITC/propidium iodide staining-based flow cytometric method (reference value: 0.341%); assay type: functional
[27] = Drug level in human plasma treated with (5-fluoro-2,4-dioxo-3,4-dihydropyrimidin1(2H)-yl)methyl-2-((S)-2-((2S,3R)-3-amino-2-hydroxy-4-phenylbut-anamido)-4-methylpentanamido)acetate hydrochloride at 4 mg/ml after 8 hrs by HPLC method; assay type: ADME, cell-free
PLC-PRF-5 [28] = assay: Induction of apoptosis in human PLC/PRF/5 cells assessed as early apoptotic cells at 20 uM after 48 hrs by annexin-V-FITC/propidium iodide staining-based flow cytometric method (reference value: 5.82%); assay type: functional
U-266 [29] = assay: Antiproliferative activity against human U266 cells in presence of ubenimex after 48 hrs by MTT assay; assay type: functional, cell-based; details: U-266, 48 h
[30] = Cmax in Wistar rat at 80 mg/kg, iv after 0.05 to 24 hrs by HPLC-MS/MS analysis; assay type: ADME, organism-based; set-up: dose 80 mg/kg, route intravenous; details: in vivo
cells [31] = details: Homo sapiens, H7402, 48 h
[32] = Drug level in Wistar rat plasma treated with (5-fluoro-2,4-dioxo-3,4-dihydropyrimidin1(2H)-yl)methyl-2-((S)-2-((2S,3R)-3-amino-2-hydroxy-4-phenylbut-anamido)-4-methylpentanamido)acetate hydrochloride assessed as carboxylesterase-mediated compound formation at 80 mg/kg, iv by HPLC-MS/MS analysis; assay type: ADME, organism-based; details: in vivo

CC(C)C[C@H](NC(=O)[C@@H](O)[C@H](N)Cc1ccccc1)C(=O)N[C@@H](C)C(=O)OCn1cc(F)c(=O)[nH]c1=O
IC50 (cells [1]): 25.3 µM | IC50 (PLC-PRF-5 [2]): 24.2 µM | IC50 (Aminopeptidase N): 0.17 µM

CC(C)C[C@H](NC(=O)[C@@H](O)[C@H](N)Cc1ccccc1)C(=O)OCn1cc(F)c(=O)[nH]c1=O
IC50 (cells [1]): 26.1 µM | IC50 (PLC-PRF-5 [2]): 18.4 µM | IC50 (Aminopeptidase N): 3.18 µM

CC(C)C[C@H](NC(=O)[C@@H](O)[C@H](N)Cc1ccccc1)C(=O)NCCCCCC(=O)OCn1cc(F)c(=O)[nH]c1=O
IC50 (cells [1]): 104 µM | IC50 (PLC-PRF-5 [2]): 60.1 µM | IC50 (Aminopeptidase N): 1.83 µM

O=c1[nH]cc(F)c(=O)[nH]1 [FLUOROURACIL]
IC50 (HCT-116 [3]): 53.8 µM | clearance [4]: 98.4 mL/min/kg | half-life [5]: 2.35 h | viability at 20 µM (PLC-PRF-5 [6]): 73.1% | IC50 (PLC-PRF-5 [7]): 22.8 µM | IC50 (cells [1]): 71.5 µM | IC50 (PLC-PRF-5 [2]): 35.7 µM | Activity (H22): inactive | IC50 [8]: 21.9 µM | IC50 (U-937 [9]): 9.56 µM | IC50 (cells [10]): 37.1 µM | Vd [11]: 20.1 L/kg | IC50 (HCT-116 [12]): 44.1 µM | IC50 (U-937 [13]): 28.8 µM | Activity (PLC-PRF-5 [14]): 33.3% | AUC(0-inf) [15]: 13600 ng·h/mL | IC50 (HepG2 [16]): 14.5 µM | Activity (PLC-PRF-5 [17]): 2.38% | MRT inf [18]: 2.48 h | Activity (PLC-PRF-5 [19]): 0% | Activity (PLC-PRF-5 [20]): Active | IC50 (A549): 17 µM | Activity (PLC-PRF-5 [21]): inactive | viability at 20 µM (PLC-PRF-5 [22]): 64.3% | IC50 (HepG2 [23]): 18.4 µM | VRT (Rattus norvegicus): 4.205 hr2 | Activity (PLC-PRF-5 [24]): 0% | IC50 (U-266 [25]): 66.2 µM | Activity (PLC-PRF-5 [26]): 6.8% | Drug metabolism [27]: Metabolite_Detected | Activity (PLC-PRF-5 [28]): 20.1% | IC50 (U-266 [29]): 43.5 µM | Cmax [30]: 3810 ng/mL | IC50 (cells [31]): 17.6 µM | Drug metabolism [32]: Metabolite_Detected
